Results from article PMC9570594, “Development of Novel Pyridine-Thiazole Hybrid Molecules as Potential Anticancer Agents” (Molecules, 2022).

Legend:
[1] = tested on: NCI/ADR-RES (Ovarian Cancer); assay: NCI five-dose SRB assay; assay type: cell-based; conditions: Homo sapiens, 48 h
HL-60(TB) (Leukemia) = assay: NCI five-dose SRB assay; assay type: cell-based; conditions: Homo sapiens, 48 h
[2] = tested on: NCI-H522 (Non-Small Cell Lung Cancer); assay: NCI five-dose SRB assay; assay type: cell-based; conditions: Homo sapiens, 48 h
Jurkat (leukemia) = assay: MTT assay of cell viability; conditions: Homo sapiens, 72 h
LOX IMVI (Melanoma) = assay: NCI five-dose SRB assay; assay type: cell-based; conditions: Homo sapiens, 48 h
PC-3 (Prostate Cancer) = assay: NCI five-dose SRB assay; assay type: cell-based; conditions: Homo sapiens, 48 h
[3] = tested on: EKVX (Non-Small Cell Lung Cancer); assay: NCI five-dose SRB assay; assay type: cell-based; conditions: Homo sapiens, 48 h
[4] = tested on: Renal Cancer cell lines (MG_MID); assay: NCI five-dose SRB assay; assay type: cell-based; conditions: Homo sapiens, 48 h
[5] = tested on: MCF-7 breast cancer cells; assay: Soft agar drug sensitivity assay; assay type: cell-based, human; conditions: MCF-7, 1 and 5 µM, day 12
Protocol: It was proposed that testing of drugs in a 3-dimensional (3D) format, such as soft agar, is more similar to the in vivo cellular microenvironment and the results of such testing have a good correlation with in vivo conditions.
Five hundred MCF-7 breast cancer cells in 0.5% sterile agar (Bacto-Agar, Difco Laboratories) were layered on a preformed 0.8% sterile agar layer using 24 well plate (CytoONE, STARLAB International GmbH, Hamburg, Germany). The cells in agar were treated with the compound 4 at concentrations of 1 and 5 µM/mL. Doxorubicin was used as a positive control. The 0.5% agar layer included DMEM medium containing 10% FBS, cells, and tested compounds. The 0.8% agar layer included DMEM medium. Colonies with a size of >50 µm were counted under the microscope and photographed after 12 days.

CCOC(=O)c1ccc(NC(=O)CSC(CC(=O)c2sc(Nc3ccccn3)nc2C)c2ccccc2F)cc1 (stereo not drawn) [Compound 4, Ethyl 4-[[2-[1-(2-Fluorophenyl)-3-[4-methyl-2-(2-pyridylamino)thiazol-5-yl]-3-oxopropyl]sulfanylacetyl]amino]benzoate]
GI50 [1]: 24.1 µM | GI50 (HL-60(TB) (Leukemia)): 21.4 µM | GI50 [2]: 21.6 µM | IC50 (Jurkat (leukemia)): 5.36 ± 0.16 µM | GI50 (LOX IMVI (Melanoma)): 0.312 µM | GI50 (PC-3 (Prostate Cancer)): 23.8 µM | GI50 [3]: 19 µM | GI50 [4]: 33.4 µM | size and number of colonies in soft agar [5]: reduces the size and number of colonies
